Test results published in US20230404985A1, “METHODS OF TREATING TUMORS AND CANCERS HAVING DYSREGULATED WNT SIGNALING PATHWAYS” (ICAHN SCHOOL OF MEDICINE AT MOUNT SINAI, priority 2020, published 2023).

What was measured:
Advanced-stage HCC = conditions: patients; cited from earlier work
WNT pathway reporter = experiment: GFP-based WNT reporter in stable MYC-CTNNB1 organoids; type: cell-based, mouse
Source text: The library was further refined by performing dose-response curves on tumor organoids and primary human hepatocytes (FIG. 1C). In addition, stable MYC-CTNNB1 organoids expressing a GFP-based WNT reporter were created to assess direct transcriptional inhibition of the pathway. […] WNTinib was exemplary for its therapeutic index, as defined by its preferential activity in the CTNNB1-driven model as compared to hepatocytes.

[1] = system: wild type (WT) healthy intestinal organoids; experiment: TiterGlo viability of wild type intestinal organoids; type: cell-based, mouse; conditions: 72 hours post treatment
Description: (§1) FIGS. 13A-13E show results pertaining to colorectal cancer. […] Data are column/gene normalized on a 0-100 scale with 0 being the lowest expression level and 100 the highest. FIG. 13D show full dose-response analysis of WNTinib's effects on the indicated organoid and tumoroid lines; viability was quantified using the TiterGlo assay after 72 hours. WT intestinal organoids are used as a control. […] Images of the intestine are shown as an example.
(§2) First, an APC deletion (A) was introduced, then a KRAS^G12D overexpression (AK) in combination with a SMAD4^KO was introduced to affect the TGFbeta pathway (AKS). Last, P53 was deleted to mimic the latest stages of metastatic disease progression (AKSP).

[2] = system: immune cell tumor infiltration; experiment: Immune cell profiling of tumors by spectral cytometry; type: in vivo, mouse; conditions: compared to vehicle or standard of care (sorafenib); six days after start of dosing
Description: FIGS. 14A-14G show results pertaining the use of WNTinib in combination with immunotherapy. […] C57/BL6 mice were randomized into treatment groups using IVIS imaging to quantify tumor size based on luminescence signal intensity. After randomization, kinase inhibitors were dissolved in 25% cremaphor:ethanol in water and administered orally (30 mg/kg sorafenib, 20 mg/kg WNTinib) beginning 7 days after injection following 5 days on/2 days off dosing schedule. Immunotherapy (anti-PD-1) was administered via intraperitoneal injection on days 11, 13, and 15 after injection at 200 μg. Log-rank p-values for survival in drug treatment groups to vehicle group and median survival are shown. Mice were assigned to different treatment groups as follows: vehicle (25), sorafenib (10), aPD-1 (15), WNTinib (25), and WNTinib+aPD-1 (25). […] Significant differences between groups indicated by asterisks. ** P<0.005, *** P<0.0005, as calculated with an ANOVA with Tukey test for multiple comparisons. Animals were dosed via daily oral gavage using 20 mg/kg of WNTinib and 30 mg/kg of sorafenib. […] 3 animals per indicated groups were assessed using spectral cytometry panels for both lymphocytes and myeloid cells. […]
Next, the effect of WNTinib on immune cell tumor infiltration was evaluated.

[3] = system: AKS: APCKO::KRASG12D::SMAD4KO tumoroids; experiment: TiterGlo viability of CRC tumoroids (AKS); type: cell-based, mouse
Description: as §1, §2

AKSP tumoroids = experiment: Full dose-response in CRC tumoroids (AKSP); type: cell-based, mouse; conditions: TiterGlo after 72 hours
Description: as §1
Next, a full dose-response of WNTinib in WildType normal organoids (WT), APC^KO (A), APC^KO KRAS^G12D/SMAD4^KO (AKS) and APC^KO KRAS^G12D/SMAD4^KO P53^KO (AKSP) tumoroids was performed. WNTinib has a lower IC50 in the aggressive metastatic AKSP tumoroids compared to their matched parental WT organoid line, providing thus a therapeutic window for the most advanced CRC models (FIG. 13D).

[4] = system: MYC-CTNNB1 tumor organoid allografts; experiment: MYC-CTNNB1 tumor organoid allografts; type: in vivo, C57BL/6J mice
[5] = WNTinib 20 mg/kg daily, anti-PD-1 200 μg i.p., start ~350 mm^3
[6] = tumors of advanced-stage allograft study

| SMILES | median survival (Advanced-stage HCC) | WNT-driven GFP expression (WNT pathway reporter) (WNT pathway reporter) | viability of WT organoids [1] | immune cell tumor infiltration [2] | viability of AKS CRC line ([3]; 72 hours post treatment) | organoid morphology of AKS organoids ([3]; WNTinib 3 μM, 72 hrs) | IC50 in AKSP tumoroids compared to parental WT organoid line (AKSP tumoroids) | survival in allograft combination study [4, 5] | tumor regression in allograft combination study [4, 5] | efficacy in allograft combination study ([4]; WNTinib 20 mg/kg, sorafenib 30 mg/kg daily, anti-PD-1 200 μg i.p., start ~350 mm^3) | tumor regression ([4]; treatment started at 100 mm^3, 30 mg/kg daily oral gavage) | efficacy in advanced-stage setting versus sorafenib ([4]; treatment started at 300-400 mm^3, WNTinib 20 mg/kg, sorafenib 30 mg/kg) | EZH2 T367 phosphorylation in tumors [4, 6] | WNT-target genes in tumors (qPCR) [4, 6] |
| --- | --- | --- | --- | --- | --- | --- | --- | --- | --- | --- | --- | --- | --- | --- |
| CNC(=O)c1cc(Oc2ccc(NC(=O)Nc3ccc(Cl)c(C(F)(F)F)c3)cc2)ccn1 [sorafenib, reference compound] | 11-14 months | – | – | – | – | – | – | – | – | – | – | – | – | – |
| CNC(=O)c1cc(Oc2ccc(NC(=O)Nc3ccc(C(F)(F)C(F)(F)F)cc3)c(F)c2)ccn1 [WNTinib, 4-(3-fluoro-4-(3-(4-(perfluoroethyl)phenyl)ureido)phenoxy)-N-methylpicolinamide] | – | only compound to downregulate WNT-driven GFP expression | without affecting that of WT organoids | significantly increase the number of CD45^+ cells, the ratio of CD4/CD8, and the number of neutrophils and reduce the number of B cells and immunosuppressed tissue associated macrophages (TAM) in tumors | reduce the viability | induce a reversal of organoid morphology | lower IC50 | prolong survival | able to induce tumor regression | superior efficacy | induced significant tumor regression in the majority of animals | superior to the standard of care clinical compound (sorafenib) | inhibition of EZH2 T367 phosphorylation | in vivo suppression of WNT-target genes |
